How the values were obtained:
[1] = molecular target: T1, Somatostatin receptor type 3 (Homo sapiens, UniProt P32745)
Description: Antagonist activity at human somatostatin receptor type 3 assessed as inhibition of cAMP levels

Mus musculus [2] = assay: Dose normalized AUC in mouse at 2 mg/kg, po; assay type: ADME, organism-based; details: in vivo
Mus musculus [3] = assay: Decrease in glucose excursion in mouse at 10 mg/kg, po by Glucose tolerance test; assay type: functional; design: scale not given: the % may be the effect or the level left
Mus musculus [4] = assay: Decrease in glucose excursion in mouse at 0.1 mg/kg, po by Glucose tolerance test; assay type: functional; design: scale not given: the % may be the effect or the level left
[5] = Oral bioavailability in mouse at 2 mg/kg; assay type: ADME, organism-based; details: in vivo
[6] = Volume of distribution at steady state in mouse at 1 mg/kg, iv and at 2 mg/kg, po; assay type: ADME, organism-based; details: in vivo, read-out: Vdss
[7] = Clearance in mouse plasma at 1 mg/kg, iv; assay type: ADME, organism-based
[8] = Half life in mouse at 1 mg/kg, iv; assay type: ADME, organism-based; details: in vivo
[9] = molecular target: Somatostatin receptor type 4 (Homo sapiens, UniProt P31391); assay: Binding affinity to somatostatin receptor type 4 (unknown origin)
Chain of Somatostatin receptor type 4 (P31391 whole entry): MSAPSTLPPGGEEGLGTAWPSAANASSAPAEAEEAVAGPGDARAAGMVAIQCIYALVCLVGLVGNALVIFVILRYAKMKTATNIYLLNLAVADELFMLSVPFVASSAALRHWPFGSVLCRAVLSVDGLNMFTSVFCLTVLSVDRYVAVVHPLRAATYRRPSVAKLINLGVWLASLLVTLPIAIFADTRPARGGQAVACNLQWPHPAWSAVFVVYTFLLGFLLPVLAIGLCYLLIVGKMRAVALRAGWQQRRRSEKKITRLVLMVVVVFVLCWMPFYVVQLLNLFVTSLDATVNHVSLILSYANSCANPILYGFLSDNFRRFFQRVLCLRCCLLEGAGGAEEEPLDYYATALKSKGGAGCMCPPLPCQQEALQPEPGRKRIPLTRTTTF

Mus musculus [10] = assay: Decrease in glucose excursion in mouse at 1 mg/kg, po by Glucose tolerance test; assay type: functional; design: scale not given: the % may be the effect or the level left
Mus musculus [11] = assay: Decrease in glucose excursion in mouse at 0.03 mg/kg, po by Glucose tolerance test; assay type: functional; design: scale not given: the % may be the effect or the level left
[12] = molecular target: Somatostatin receptor type 2 (Homo sapiens, UniProt P30874); assay: Binding affinity to somatostatin receptor type 2 (unknown origin)
Chain of Somatostatin receptor type 2 (P30874 whole entry): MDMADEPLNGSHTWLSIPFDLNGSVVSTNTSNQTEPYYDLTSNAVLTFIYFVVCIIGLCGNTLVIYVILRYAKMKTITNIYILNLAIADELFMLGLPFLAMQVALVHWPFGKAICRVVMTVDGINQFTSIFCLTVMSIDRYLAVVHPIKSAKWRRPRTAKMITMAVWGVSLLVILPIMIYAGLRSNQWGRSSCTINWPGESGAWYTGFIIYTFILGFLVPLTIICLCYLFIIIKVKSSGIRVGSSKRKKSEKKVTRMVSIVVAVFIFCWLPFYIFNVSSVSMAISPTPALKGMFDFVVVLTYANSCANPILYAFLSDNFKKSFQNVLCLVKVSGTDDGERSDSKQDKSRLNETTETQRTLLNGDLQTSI

[13] = molecular target: Somatostatin receptor type 1 (Homo sapiens, UniProt P30872); assay: Binding affinity to somatostatin receptor type 1 (unknown origin)
Chain of Somatostatin receptor type 1 (P30872 whole entry): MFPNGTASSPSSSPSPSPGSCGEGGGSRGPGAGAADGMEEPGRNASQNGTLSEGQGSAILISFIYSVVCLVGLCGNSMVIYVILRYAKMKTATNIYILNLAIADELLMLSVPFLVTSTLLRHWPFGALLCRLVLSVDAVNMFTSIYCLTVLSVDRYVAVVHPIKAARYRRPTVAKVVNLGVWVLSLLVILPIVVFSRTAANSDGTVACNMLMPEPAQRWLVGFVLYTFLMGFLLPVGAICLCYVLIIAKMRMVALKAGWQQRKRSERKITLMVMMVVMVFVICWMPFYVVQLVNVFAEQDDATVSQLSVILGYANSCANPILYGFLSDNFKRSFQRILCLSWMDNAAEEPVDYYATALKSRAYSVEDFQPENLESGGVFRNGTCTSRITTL

Mus musculus [14] = assay: Decrease in glucose excursion in mouse at 0.3 mg/kg, po by Glucose tolerance test; assay type: functional; design: scale not given: the % may be the effect or the level left
Mus musculus [15] = assay: Decrease in glucose excursion in mouse at 3 mg/kg, po by Glucose tolerance test; assay type: functional; design: scale not given: the % may be the effect or the level left
[16] = molecular target: Somatostatin receptor type 5 (Homo sapiens, UniProt P35346); assay: Binding affinity to somatostatin receptor type 5 (unknown origin)
Chain of Somatostatin receptor type 5 (P35346 whole entry): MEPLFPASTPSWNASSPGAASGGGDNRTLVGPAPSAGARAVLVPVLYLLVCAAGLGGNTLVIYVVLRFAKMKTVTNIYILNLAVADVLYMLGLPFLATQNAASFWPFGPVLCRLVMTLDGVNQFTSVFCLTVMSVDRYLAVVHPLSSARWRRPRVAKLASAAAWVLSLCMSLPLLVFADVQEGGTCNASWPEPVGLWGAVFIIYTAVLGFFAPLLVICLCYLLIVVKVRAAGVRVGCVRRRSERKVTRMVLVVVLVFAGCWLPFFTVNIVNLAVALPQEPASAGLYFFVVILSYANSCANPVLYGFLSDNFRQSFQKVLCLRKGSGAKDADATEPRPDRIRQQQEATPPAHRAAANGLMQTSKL

[17] = molecular target: T1, Somatostatin receptor type 3; remark: listed apart in the source
Description: Binding affinity to human somatostatin receptor type 3

[18] = molecular target: Voltage-gated inwardly rectifying potassium channel KCNH2 (Homo sapiens, UniProt Q12809); assay: Binding affinity to human ERG
Chain of Voltage-gated inwardly rectifying potassium channel KCNH2 (Q12809 whole entry): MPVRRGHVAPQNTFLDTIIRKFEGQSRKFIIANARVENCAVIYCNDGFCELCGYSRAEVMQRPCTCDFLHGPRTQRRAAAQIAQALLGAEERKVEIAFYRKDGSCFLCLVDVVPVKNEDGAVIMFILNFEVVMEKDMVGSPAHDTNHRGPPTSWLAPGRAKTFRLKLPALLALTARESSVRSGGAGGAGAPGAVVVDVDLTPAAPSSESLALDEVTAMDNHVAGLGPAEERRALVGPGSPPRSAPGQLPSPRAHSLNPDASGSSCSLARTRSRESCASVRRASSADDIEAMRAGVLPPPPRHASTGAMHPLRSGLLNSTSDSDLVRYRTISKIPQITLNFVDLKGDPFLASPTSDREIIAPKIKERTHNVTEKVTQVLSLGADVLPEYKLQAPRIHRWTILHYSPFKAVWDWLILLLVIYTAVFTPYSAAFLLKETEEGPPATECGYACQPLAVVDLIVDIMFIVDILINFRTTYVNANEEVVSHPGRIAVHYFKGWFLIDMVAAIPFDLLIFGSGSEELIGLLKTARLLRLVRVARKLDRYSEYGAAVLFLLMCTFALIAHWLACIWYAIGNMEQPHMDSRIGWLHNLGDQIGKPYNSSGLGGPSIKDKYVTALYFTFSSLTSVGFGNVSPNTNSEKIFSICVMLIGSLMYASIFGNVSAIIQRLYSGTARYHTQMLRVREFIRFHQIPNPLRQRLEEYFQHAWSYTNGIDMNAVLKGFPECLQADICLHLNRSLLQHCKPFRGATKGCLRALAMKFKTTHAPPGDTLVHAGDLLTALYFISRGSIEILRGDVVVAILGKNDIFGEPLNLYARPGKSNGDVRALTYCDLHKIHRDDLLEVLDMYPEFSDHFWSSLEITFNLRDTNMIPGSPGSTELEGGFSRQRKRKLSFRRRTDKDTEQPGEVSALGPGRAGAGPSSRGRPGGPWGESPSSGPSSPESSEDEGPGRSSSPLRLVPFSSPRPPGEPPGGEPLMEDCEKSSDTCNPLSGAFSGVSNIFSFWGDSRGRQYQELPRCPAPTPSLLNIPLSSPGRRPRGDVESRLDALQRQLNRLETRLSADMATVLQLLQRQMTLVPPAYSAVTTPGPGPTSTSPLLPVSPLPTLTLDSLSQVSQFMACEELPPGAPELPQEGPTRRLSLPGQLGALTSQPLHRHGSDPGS

T1 sequence (P32745 whole entry): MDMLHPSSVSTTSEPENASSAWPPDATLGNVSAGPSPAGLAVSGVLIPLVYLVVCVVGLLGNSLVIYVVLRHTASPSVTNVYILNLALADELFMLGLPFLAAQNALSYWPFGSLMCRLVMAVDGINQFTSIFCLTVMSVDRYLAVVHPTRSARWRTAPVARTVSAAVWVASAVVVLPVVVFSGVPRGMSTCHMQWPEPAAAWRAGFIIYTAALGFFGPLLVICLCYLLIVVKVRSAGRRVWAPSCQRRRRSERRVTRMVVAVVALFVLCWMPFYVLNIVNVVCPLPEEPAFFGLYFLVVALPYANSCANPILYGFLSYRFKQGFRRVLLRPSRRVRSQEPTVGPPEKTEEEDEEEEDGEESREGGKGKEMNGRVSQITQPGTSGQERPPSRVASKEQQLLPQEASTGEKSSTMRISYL

Row | SMILES | EC50 [1] | IC50 [17] | also measured
1 | c1ccc(-c2c[nH]c([C@H]3Cc4c([nH]c5ccccc45)[C@@H](C4CCOCC4)N3)n2)cc1 | 22 nM |  | AUC/dose (Mus musculus [2]): 1.25 µM·h/mg/kg; Activity (Mus musculus [3]): 75%
2 | Cc1nc([C@]2(c3cnn(C)c3)N[C@@H](c3nc(-c4ccc(F)cc4)c[nH]3)Cc3c2[nH]c2ccccc32)no1 |  |  | Activity (Mus musculus [4]): 94%
3 | Cc1nc([C@]2(c3cnn(C)c3)N[C@@H](c3nc(-c4ccc(F)cn4)c[nH]3)Cc3c2[nH]c2ccccc32)no1 |  |  | IC50 [9]: 3200 nM; Activity (Mus musculus [10]): 87%; Activity (Mus musculus [4]): 46%; Activity (Mus musculus [11]): 40%; IC50 [12]: > 10000 nM; IC50 [13]: 2300 nM; Activity (Mus musculus [14]): 57%; Activity (Mus musculus [15]): 93%; IC50 [16]: 10000 nM
4 | O=C(O)c1cccc(-c2c[nH]c([C@H]3Cc4c([nH]c5ccccc45)[C@@H](C4CCOCC4)N3)n2)c1 |  | > 1330 nM | 
5 | CS(=O)(=O)c1ccc(-c2c[nH]c([C@H]3Cc4c([nH]c5ccccc45)[C@@H](C4CCOCC4)N3)n2)cc1 | > 1000 nM | > 1330 nM | 
6 | c1ccc2c3c([nH]c2c1)[C@@H](C1CCOCC1)N[C@@H](c1nc(-c2ccsc2)c[nH]1)C3 | 48 nM | 15 nM | 
7 | Cn1cc(-c2ccc(F)cc2)nc1[C@H]1Cc2c([nH]c3ccccc23)[C@H](C2CCOCC2)N1 |  | 1330 nM | 
8 | Fc1cccc(-c2c[nH]c([C@H]3Cc4c([nH]c5ccccc45)[C@@H](C4CCOCC4)N3)n2)c1 | 88 nM | 8.2 nM | 
9 | c1ccc2c3c([nH]c2c1)[C@@H](C1CCOCC1)N[C@@H](c1nc(-c2ccncc2)c[nH]1)C3 | 432 nM | 163 nM | 
10 | Clc1ccc(-c2c[nH]c([C@H]3Cc4c([nH]c5ccccc45)[C@@H](C4CCOCC4)N3)n2)nc1 | 199 nM | 74 nM | 
11 | c1cnc(-c2c[nH]c([C@H]3Cc4c([nH]c5ccccc45)[C@@H](C4CCOCC4)N3)n2)nc1 | > 1000 nM | > 1330 nM | 
12 | c1ccc2c3c([nH]c2c1)[C@@H](C1CCOCC1)N[C@@H](c1nc(-c2cscn2)c[nH]1)C3 | > 1000 nM | 786 nM | 
13 | c1ccc2c3c([nH]c2c1)[C@@H](C1CCOCC1)N[C@@H](c1nc(-c2cnccn2)c[nH]1)C3 | 4500 nM | 782 nM | 
14 | Cc1nc([C@]2(c3cnn(C)c3)N[C@@H](c3nc(-c4ccccc4)c[nH]3)Cc3c2[nH]c2ccccc32)no1 | 0.46 nM | 1.4 nM | 
15 | Fc1ccc(-c2c[nH]c([C@H]3Cc4c([nH]c5ccccc45)[C@@H](C4CCOCC4)N3)n2)c(F)c1 | 37 nM | 23 nM | IC50 [18]: 634 nM
16 | Cc1csc(-c2c[nH]c([C@H]3Cc4c([nH]c5ccccc45)[C@@H](C4CCOCC4)N3)n2)c1 | 138 nM | 34 nM | 
17 | Cn1c2c(c3ccccc31)C[C@H](c1nc(-c3ccc(F)cc3)c[nH]1)N[C@@H]2C1CCOCC1 | 150 nM | 26 nM | 
18 | COc1cccc(-c2c[nH]c([C@H]3Cc4c([nH]c5ccccc45)[C@@](c4cnn(C)c4)(c4noc(C)n4)N3)n2)n1 | 17 nM | 2.9 nM | 

Row | SMILES | EC50 [1] | IC50 [17] | also measured
19 | c1ccc2c3c([nH]c2c1)[C@@H](C1CCOCC1)N[C@@H](c1nc(-c2csc4ccccc24)c[nH]1)C3 | 11 nM | 10 nM | 
20 | COc1cccc(-c2c[nH]c([C@H]3Cc4c([nH]c5ccccc45)[C@@H](C4CCOCC4)N3)n2)n1 | 3.1 nM | 8 nM | IC50 [18]: 1020 nM
21 | c1ccc2c3c([nH]c2c1)[C@@H](C1CCOCC1)N[C@@H](c1nc(-c2nccs2)c[nH]1)C3 | > 1000 nM | > 1330 nM | 
22 | Clc1ccc(-c2c[nH]c([C@H]3Cc4c([nH]c5ccccc45)[C@@H](C4CCOCC4)N3)n2)s1 | 206 nM | 17 nM | 
23 | FC(F)(F)Oc1cccc(-c2c[nH]c([C@H]3Cc4c([nH]c5ccccc45)[C@@H](C4CCOCC4)N3)n2)c1 | > 1000 nM | 43 nM | IC50 [18]: 58 nM
24 | Fc1ccc(-c2c[nH]c([C@H]3Cc4c([nH]c5ccccc45)[C@@H](C4CCOCC4)N3)n2)cc1F | 6.4 nM | 1.8 nM | 
25 | c1ccc2c3c([nH]c2c1)C(C1CCOCC1)NC(c1nc(C2CCCCC2)c[nH]1)C3 (stereo not drawn) | 691 nM | 230 nM | 
26 | Fc1ccc(-c2n[nH]c([C@H]3Cc4c([nH]c5ccccc45)[C@@H](C4CCOCC4)N3)n2)cc1 | 201 nM | 282 nM | 
27 | Cc1nc([C@@]2(c3cnn(C)c3)N[C@@H](c3nc(-c4ccccc4)c[nH]3)Cc3c2[nH]c2ccccc32)no1 | 3.3 nM | 2.6 nM | 
28 | c1ccc2c(-c3c[nH]c([C@H]4Cc5c([nH]c6ccccc56)[C@@H](C5CCOCC5)N4)n3)c[nH]c2c1 |  | 133 nM | 
29 | Fc1ccc(-c2c[nH]c([C@H]3Cc4c([nH]c5ccccc45)[C@@H](C4CCOCC4)N3)n2)nc1 | 67 nM | 39 nM | 
30 | FC(F)(F)c1ccc(-c2c[nH]c([C@H]3Cc4c([nH]c5ccccc45)[C@@H](C4CCOCC4)N3)n2)cc1 | 1520 nM | 26 nM | 
31 | Cc1[nH]c([C@H]2Cc3c([nH]c4ccccc34)[C@@H](C3CCOCC3)N2)nc1-c1ccccc1 | > 1000 nM | 573 nM | 
32 | c1ccc2c3c([nH]c2c1)C(C1CCOCC1)NC(c1nc(C24CC5CC(CC(C5)C2)C4)c[nH]1)C3 (stereo not drawn) | > 1000 nM | 25 nM | IC50 [18]: 506 nM
33 | Cn1cc(-c2ccc(F)cc2)nc1[C@H]1Cc2c([nH]c3ccccc23)[C@@H](C2CCOCC2)N1 | > 1000 nM | 225 nM | 
34 | CC1(c2nc(-c3ccccc3)c[nH]2)Cc2c([nH]c3ccccc23)C(C2CCOCC2)N1 (stereo in doubt; 6b) |  | 603 nM | IC50 [18]: 2950 nM
35 | CC1(c2nc(-c3ccccc3)c[nH]2)Cc2c([nH]c3ccccc23)C(C2CCOCC2)N1 (stereo in doubt; 6c) |  | > 1330 nM | IC50 [18]: 1630 nM
36 | CC1(c2nc(-c3ccccc3)c[nH]2)Cc2c([nH]c3ccccc23)C(C2CCOCC2)N1 (stereo in doubt; 6d) | > 1000 nM | 102 nM | IC50 [18]: 530 nM

Now from value to compound, other results behind:

Row | EC50 [1] | IC50 [17] | SMILES | also measured
37 | 5.7 nM |  | Fc1ccc(-c2c[nH]c([C@H]3Cc4c([nH]c5ccccc45)[C@@H](C4CCOCC4)N3)n2)cc1 | bioavailability [5]: 82%; Vd [6]: 1.8 L/kg; clearance [7]: 5.9 mL/min/kg; AUC/dose (Mus musculus [2]): 5.58 µM·h/mg/kg; half-life [8]: 3.6 h; Activity (Mus musculus [3]): 79%
38 | 30 nM | 18 nM | Fc1ccccc1-c1c[nH]c([C@H]2Cc3c([nH]c4ccccc34)[C@@H](C3CCOCC3)N2)n1 | 
39 | 4.8 nM | 2.1 nM | COc1cccc(-c2c[nH]c([C@H]3Cc4c([nH]c5ccccc45)[C@](c4cnn(C)c4)(c4noc(C)n4)N3)n2)n1 | 
40 | 113 nM | 33 nM | Cc1ccc(-c2c[nH]c([C@H]3Cc4c([nH]c5ccccc45)[C@@H](C4CCOCC4)N3)n2)cc1 | 
41 | 77 nM | 24 nM | Cc1nc([C@@]2(c3cnn(C)c3)N[C@@H](c3nc(-c4ccccn4)c[nH]3)Cc3c2[nH]c2ccccc32)no1 | 
42 |  | 193 nM | c1cncc(-c2c[nH]c([C@H]3Cc4c([nH]c5ccccc45)[C@@H](C4CCOCC4)N3)n2)c1 | 
43 |  | 141 nM | N#Cc1ccc(-c2c[nH]c([C@H]3Cc4c([nH]c5ccccc45)[C@@H](C4CCOCC4)N3)n2)cc1 | 
44 | 50 nM | 8.1 nM | Clc1ccc(-c2c[nH]c([C@H]3Cc4c([nH]c5ccccc45)[C@@H](C4CCOCC4)N3)n2)cc1 | 
45 | 17 nM | 4.6 nM | COc1cccc(-c2c[nH]c([C@H]3Cc4c([nH]c5ccccc45)[C@@H](C4CCOCC4)N3)n2)c1 | 
46 | 405 nM | 487 nM | c1ccc(-c2nc([C@H]3Cc4c([nH]c5ccccc45)[C@@H](C4CCOCC4)N3)c[nH]2)cc1 | 
47 | 435 nM | 37 nM | N#Cc1cccc(-c2c[nH]c([C@H]3Cc4c([nH]c5ccccc45)[C@@H](C4CCOCC4)N3)n2)c1 | 
48 | 181 nM | 127 nM | COc1ccc(-c2c[nH]c([C@H]3Cc4c([nH]c5ccccc45)[C@@H](C4CCOCC4)N3)n2)cc1 | 
49 | > 1000 nM | 639 nM | FC(F)(F)Oc1ccc(-c2c[nH]c([C@H]3Cc4c([nH]c5ccccc45)[C@@H](C4CCOCC4)N3)n2)cc1 | 
50 | 26 nM | 34 nM | Oc1ccc(-c2c[nH]c([C@H]3Cc4c([nH]c5ccccc45)[C@@H](C4CCOCC4)N3)n2)cc1 | 
51 | > 1000 nM | 391 nM | c1ccc(-c2ccc(-c3c[nH]c([C@H]4Cc5c([nH]c6ccccc56)[C@@H](C5CCOCC5)N4)n3)cc2)cc1 | 
52 | 196 nM | 109 nM | c1ccc(-c2c[nH]c([C@H]3Cc4c([nH]c5ccccc45)[C@@H](C4CCOCC4)N3)n2)nc1 | 
53 | 5.5 nM | 9.4 nM | Cc1nc([C@]2(c3cnn(C)c3)N[C@@H](c3nc(-c4ccccn4)c[nH]3)Cc3c2[nH]c2ccccc32)no1 | 
54 | 1010 nM | 150 nM | CC(C)(C)c1c[nH]c(C2Cc3c([nH]c4ccccc34)C(C3CCOCC3)N2)n1 (stereo not drawn) | IC50 [18]: 2940 nM
55 | 938 nM | 280 nM | Fc1ccc(-c2cc([C@H]3Cc4c([nH]c5ccccc45)[C@@H](C4CCOCC4)N3)[nH]n2)cc1 | 

— ChEMBL document CHEMBL3774320, “SAR exploration at the C-3 position of tetrahydro-β-carboline sstr3 antagonists” (Bioorg Med Chem Lett, 2016)
